Common to all, as to test: Antimycoplasma activity, twofold agar dilution MIC
Holding throughout (assay type): cell-based
(In agar dilution, organisms are placed on agar that contains the substance at set levels.)

For one assay, the system named is A. laidlawii PG-8. Conditions: Acholeplasma laidlawii, PG8, 48 h; A. laidlawii PG-8; Chanock agar, 37 °C for 2 days, aerobically; calculated for free base; read-out: minimum inhibitory concentrations (MIC). Here is the method: (§1) The figures in the table show minimum inhibitory concentrations (MIC), (μg/ml), calculated for free base. Minimum inhibitory concentrations (MIC) were determined by the twofold agar dilution method. The media used were Chanock broth and agar [PPLD broth and agar (Difco) supplemented with 20 % horse serum and 10 % fresh yeast extract]. A 2-3 day broth culture of organisms was diluted with Chanock broth to a cell density of about 10^6 cells/ml. One loopful (about […]) of the organism dilution was spotted onto 10-ml drug containing Chanock agar in petri dishes using a multiple inoculator ([…] International). […] Incubation was performed anaerobically using the […] anaerobic system (BBL) for M. buccale, M. fermentans, M. hominis, M. orale and M. salivarium, and aerobically for other Mycoplasma spp. The MIC was defined as the lowest compound concentration at which no growth of organism was detected.

The next assay concerns M. arginini G-230. Conditions: 48 h; M. arginini G-230; Chanock agar, 37 °C for 2 days, aerobically; calculated for free base; read-out: minimum inhibitory concentrations (MIC). Here is the method: as §1
The next assay deals with M. buccale CH-20249. Conditions: 48 h; M. buccale CH-20249; Chanock agar, 37 °C for 2 days, anaerobically; calculated for free base; read-out: minimum inhibitory concentrations (MIC). Here is the method: as §1
The test system of a further assay is M. fermentans PG-18. Conditions: Mycoplasmopsis fermentans, PG18, 48 h; M. fermentans PG-18; Chanock agar, 37 °C for 2 days, anaerobically; calculated for free base; read-out: minimum inhibitory concentrations (MIC). The method, then: as §1
In a further assay the test system is M. hominis PG-21. Conditions: Metamycoplasma hominis, PG21, 48 h; M. hominis PG-21; Chanock agar, 37 °C for 2 days, anaerobically; calculated for free base; read-out: minimum inhibitory concentrations (MIC). The method, then: as §1
In a further assay the test system is M. hyorhinis BST-7. Conditions: Mesomycoplasma hyorhinis, BST7, 48 h; M. hyorhinis BST-7; Chanock agar, 37 °C for 2 days, aerobically; calculated for free base; read-out: minimum inhibitory concentrations (MIC). The method, then:
as §1

For a further assay, the system named is M. orale CH-19299. Conditions: po, 48 h; M. orale CH-19299; Chanock agar, 37 °C for 2 days, anaerobically; calculated for free base; read-out: minimum inhibitory concentrations (MIC). The method, then: as §1
Another assay deals with M. salivarium PG-20. Conditions: 48 h; M. salivarium PG-20; Chanock agar, 37 °C for 2 days, anaerobically; calculated for free base; read-out: minimum inhibitory concentrations (MIC). The method, then: as §1

In brackets after ≈: the same amount, converted by molar mass.

For `Cc1c(F)c(N2C[C@@H](C)N[C@@H](C)C2)c(F)c2c1c(=O)c(C(=O)O)cn2C1CC1` [Compound 1, 1-cyclopropyl-6,8-difluoro-5-methyl-7-(cis-3,5-demethyl-1-piperazinyl)-1,4-dihydro-4-oxoquinoline-3-carboxylic acid], the MIC in the assay on A. laidlawii PG-8 is 0.05 µg/mL (≈ 0.128 µM); with M. arginini G-230 it was 0.025 µg/mL (≈ 0.0639 µM); with M. buccale CH-20249, 0.025 µg/mL (≈ 0.0639 µM); with M. fermentans PG-18, 0.025 µg/mL (≈ 0.0639 µM); with M. hominis PG-21 it was 0.05 µg/mL (≈ 0.128 µM); in the assay with M. hyorhinis BST-7, 0.025 µg/mL (≈ 0.0639 µM). For the same compound, the figures for the MIC with M. orale CH-19299 and with M. salivarium PG-20 were 0.2 µg/mL (≈ 0.511 µM) and 0.1 µg/mL (≈ 0.255 µM), respectively.
